Consider 21 molecules from ChEMBL document CHEMBL3758149, “3-(Piperidin-4-ylmethoxy)pyridine Containing Compounds Are Potent Inhibitors of Lysine Specific Demethylase 1” (J Med Chem, 2016).

For test [1], the target named is T1, Amine oxidase [flavin-containing] A (Homo sapiens, UniProt P21397).
T1 sequence (P21397 whole entry): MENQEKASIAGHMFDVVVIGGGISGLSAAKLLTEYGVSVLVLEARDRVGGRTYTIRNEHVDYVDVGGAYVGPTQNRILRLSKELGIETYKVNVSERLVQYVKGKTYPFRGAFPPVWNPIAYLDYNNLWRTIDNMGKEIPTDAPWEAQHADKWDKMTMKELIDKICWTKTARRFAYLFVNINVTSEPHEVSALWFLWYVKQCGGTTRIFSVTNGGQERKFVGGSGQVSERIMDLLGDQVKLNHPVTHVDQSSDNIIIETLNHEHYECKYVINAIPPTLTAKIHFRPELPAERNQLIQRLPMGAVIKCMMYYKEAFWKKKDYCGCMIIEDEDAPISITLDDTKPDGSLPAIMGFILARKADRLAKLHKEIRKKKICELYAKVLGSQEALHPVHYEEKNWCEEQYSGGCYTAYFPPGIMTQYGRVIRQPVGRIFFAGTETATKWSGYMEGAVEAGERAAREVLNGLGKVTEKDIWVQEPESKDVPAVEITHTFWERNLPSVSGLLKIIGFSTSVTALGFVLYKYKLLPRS
Description: Inhibition of recombinant human MAO-A after 60 mins MAO-glo assay

The target of test [2] is T2, Lysine-specific histone demethylase 1A (Homo sapiens, UniProt O60341).
The target in test [3] is T2, Lysine-specific histone demethylase 1A. The source holds these as a separate data set.

In turn, `N#Cc1ccc(-c2cc(OCC3CCNCC3)cnc2-c2ccccc2)cc1` had an inhibition constant (Ki) in test [1] of more than 50 µM.

`Cc1ccc(-c2ncc(OCC3CCNCC3)cc2-c2ccc(CN3CCCCC3)cc2)cc1`: the inhibition constant Ki in test [2] is more than 50 µM. As to `N#Cc1ccc(-c2ncc(OCC3CCNCC3)nc2-c2ccc(C#N)cc2)cc1`, affinity in test [2] was put at a Ki of 9.1 µM. In test [2], `Cc1ccc(-c2ncc(OCC3CCNCC3)cc2-c2ccc(C(=O)N3CCOCC3)cc2)cc1` had a Ki of more than 50 µM. Consider `Cc1ccc(-c2ncc(OCc3ccccc3)cc2-c2ccc(C#N)cc2)cc1`, for which the Ki in test [2] is more than 50 µM.

For the molecule `N#Cc1ccc(-c2nc(OCC3CCNCC3)cnc2-c2ccc(Br)cc2)cc1`, in test [2], the Ki stood at 0.54 µM. In other words, the sub-micromolar range. `c1ccc(-c2ccc(OCC3CCNCC3)cn2)cc1`: the Ki in test [2] is more than 50 µM. Still for that read-out and setting: the result for `C#Cc1ccc(-c2cc(OCC3CCNCC3)cnc2-c2ccc(C)cc2)cc1` reads more than 50 µM. With `N#Cc1ccc(-c2cc(OCC3CCNCC3)cnc2-c2ccc(OC(F)(F)F)cc2)cc1`, in test [1], the Ki is more than 50 µM. Molecule `Brc1ccc(-c2ncc(OCC3CCNCC3)nc2-c2ccc(Br)cc2)cc1` showed an inhibition constant (Ki) in test [2] of 26.2 µM. With `N#Cc1ccc(-c2ncc(OCC3CCNCC3)nc2-c2ccc(Br)cc2)cc1`, in test [2], the Ki was 16.5 µM. Against the preceding molecule, the Ki is about 1.6-fold lower. `Cc1ccc(-c2ncc(OCC3CCNCC3)cc2-c2ccc(C#N)cc2)cc1` gave a Ki in test [1] of more than 50 µM. For `Cc1ccc(-c2ncc(OCC3CCNCC3)cc2-c2ccc(C(=O)N3CCNCC3)cc2)cc1`, in test [2], the Ki was more than 50 µM.

The molecule `Cc1ccc(-c2ncc(OCC3CCNCC3)cc2-c2ccc(C(=O)O)cc2)cc1` came in with an inhibitory constant (Ki) in test [2] of more than 50 µM. Same read-out and setting: the value for `Cc1ccc(-c2ncc(OCC3CCNCC3)cc2-c2ccc(CO)cc2)cc1` was more than 50 µM; that for `Cc1ccc(-c2ncc(OCC3CCNCC3)cc2-c2ccc(C(=O)N3CCCCC3)cc2)cc1` was more than 50 µM; that for `c1ccc(-c2cc(OCC3CCNCC3)cnc2-c2ccccc2)cc1` was more than 50 µM.

In test [1], `N#Cc1ccc(-c2cc(OCC3CCNCC3)cnc2-c2ccc(C(F)(F)F)cc2)cc1` showed a Ki of more than 50 µM.

Regarding `Cc1ccc(-c2ncc(O)cc2-c2ccc(C#N)cc2)cc1`, the inhibition constant Ki in test [2] is more than 50 µM. `Cc1ccc(-c2ncc(OCC3CCNCC3)cc2-c2ccc(C(=O)NC3CC3)cc2)cc1` came in with a Ki in test [2] of more than 50 µM. For the molecule `CN1CCN(C(=O)CN[C@H]2C[C@@H]2c2ccc(-c3ccc(F)nc3)cc2)CC1` (relative stereo), the midpoint of inhibition in test [3], the IC50, lay at 0.077 µM. This counts as double-digit nanomolar.
